Data from publication PMC9814838, “The orphan nuclear receptor Nurr1 is responsive to non-steroidal anti-inflammatory drugs” (Communications Chemistry, 2020).
Where two headings read alike, the source gives them in different places.

Key:
Assay type in all cases: cell-based
[1] = target: T1, Nurr1 (Homo sapiens, UniProt P43354); assay: Gal4-Nurr1 hybrid reporter gene assay in HEK293T cells; conditions: for Nurr1 activity 10μM (mean fold activation) / Nurr1 activity 30μM (mean fold activation): primary screen, n ≥ 2, ^# not significant vs VP16 control
T1 construct: Nurr1 (uniprot entry: hNURR1–P43354, residues 360–598); expressed in transfected cells; host or cells: HEK293T

[2] = target: T2, Nur77 (Homo sapiens, UniProt P22736); assay: Gal4-Nur77 hybrid reporter gene assay in HEK293T cells; conditions: for Nur77 activity 10μM (mean fold activation) / Nur77 activity 30μM (mean fold activation): primary screen, n ≥ 2, ^# not significant vs VP16 control; for IC50: HEK293T, n≥3; for IC50 / Nur77 min./max. activation: mean ± SD; for Nur77 min./max. activation: compared to 0.1% DMSO; for Nur77 activity in words or dash: dash = not reported as active versus VP16 control (p < 0.05)
T2 construct: Nur77 (uniprot entry: hNUR77–P22736, residues 358–598); expressed in transfected cells; host or cells: HEK293T

[3] = target: T3, NOR1 (Homo sapiens, UniProt Q92570); assay: Gal4-NOR1 hybrid reporter gene assay in HEK293T cells; conditions: for Nor1 activity 10μM (mean fold activation) / Nor1 activity 30μM (mean fold activation): primary screen, n ≥ 2, ^# not significant vs VP16 control; for NOR1 min./max. activation: compared to 0.1% DMSO; for NOR1 activity in words or dash: dash = not reported as active versus VP16 control (p < 0.05)
T3 construct: NOR1 (isoform alpha; uniprot entry: hNOR1–Q92570-1, residues 393–626); expressed in transfected cells; host or cells: HEK293T
T3 sequence (Q92570 393-626): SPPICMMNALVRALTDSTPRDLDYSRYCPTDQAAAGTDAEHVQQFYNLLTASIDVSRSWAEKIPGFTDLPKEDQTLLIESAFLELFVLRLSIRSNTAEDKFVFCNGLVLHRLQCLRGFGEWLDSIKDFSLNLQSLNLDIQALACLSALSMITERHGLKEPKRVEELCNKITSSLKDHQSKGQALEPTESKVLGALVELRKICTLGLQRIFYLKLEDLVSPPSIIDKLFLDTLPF

[4] = HEK293T, mean ± SD, n≥3, read-out: NOR1 IC50

T1 sequence (P43354 360-598): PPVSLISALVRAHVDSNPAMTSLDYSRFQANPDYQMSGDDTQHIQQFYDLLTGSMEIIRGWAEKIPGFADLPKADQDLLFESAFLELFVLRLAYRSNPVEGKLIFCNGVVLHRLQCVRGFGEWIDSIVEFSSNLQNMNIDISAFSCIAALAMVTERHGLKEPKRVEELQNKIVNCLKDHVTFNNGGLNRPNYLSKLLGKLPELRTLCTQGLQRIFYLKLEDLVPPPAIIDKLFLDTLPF
T2 sequence (P22736 358-598): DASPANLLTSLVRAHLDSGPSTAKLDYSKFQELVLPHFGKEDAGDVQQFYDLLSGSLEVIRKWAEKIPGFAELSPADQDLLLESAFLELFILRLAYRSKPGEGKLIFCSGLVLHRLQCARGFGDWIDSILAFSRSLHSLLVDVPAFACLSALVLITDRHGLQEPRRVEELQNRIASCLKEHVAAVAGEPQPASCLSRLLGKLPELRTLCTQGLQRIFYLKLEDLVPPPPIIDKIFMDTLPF

Nurr1 activity 10μM (mean fold activation) [1]	Nurr1 activity 30μM (mean fold activation) [1]	Nur77 activity 10μM (mean fold activation) [2]	Nur77 activity 30μM (mean fold activation) [2]	Nor1 activity 10μM (mean fold activation) [3]	Nor1 activity 30μM (mean fold activation) [3]	Nurr1 activity in words or dash ([1]; dash = not reported as active versus VP16 control (p < 0.05))	IC50 [2] [µM]	Nur77 min./max. activation [2]	Nur77 activity in words or dash [2]	IC50 [3, 4] [µM]	NOR1 min./max. activation ([3]; mean ± SD)	NOR1 activity in words or dash [3]	Structure (SMILES)	IC50 [3] [µM]
1.02 fold	0.92 fold	0.98 fold	0.97 fold	1.03 fold	0.93 fold	–	–	–	–	–	–	–	CC(=O)Oc1ccccc1C(=O)O [acetylsalicylic acid]	–
1.09 fold	1.12 fold	1.08 fold	1.03 fold	1.26 fold	1.09 fold	–	–	–	–	–	–	–	Nc1c(CC(=O)O)cccc1C(=O)c1ccc(Br)cc1 [bromfenac]	–
1.10 fold	1.19 fold	1.08 fold	0.95 fold	1.17 fold	0.99 fold	–	–	–	–	–	–	–	CC(C(=O)O)c1ccc2c(c1)[nH]c1ccc(Cl)cc12 (stereo not shown) [carprofen]	–
1.06 fold	0.93 fold	0.85 fold	0.90 fold	0.95 fold	0.91 fold	–	–	–	–	–	–	–	CCc1cccc2c3c([nH]c12)C(CC)(CC(=O)O)OCC3 (stereo not shown) [etodolac]	–
1.00 fold	0.91 fold	0.99 fold	0.86 fold	1.01 fold	0.81 fold	–	–	–	–	–	–	–	CC(C(=O)O)c1cccc(Oc2ccccc2)c1 (stereo not shown) [fenoprofen]	–
1.25 fold	1.05 fold	0.93 fold	0.96 fold	0.98 fold	0.91 fold	–	–	–	–	–	–	–	CC(C(=O)O)c1ccc(-c2ccccc2)c(F)c1 (stereo not shown) [flurbiprofen]	–
1.02 fold	0.90 fold	0.99 fold	0.89 fold	0.95 fold	0.96 fold	–	–	–	–	–	–	–	CC(C)Cc1ccc(C(C)C(=O)O)cc1 (stereo not shown) [ibuprofen]	–
0.98 fold	0.90 fold	0.96 fold	0.80 fold	1.02 fold	0.87 fold	–	–	–	–	–	–	–	Cc1cc(NC(=O)C2=C(O)c3ccccc3S(=O)(=O)N2C)no1 [isoxicam]	–
1.00 fold	0.94 fold	1.04 fold	0.88 fold	1.10 fold	0.96 fold	–	–	–	–	–	–	–	CC(C(=O)O)c1cccc(C(=O)c2ccccc2)c1 (stereo not shown) [ketoprofen]	–
0.93 fold	0.86 fold	0.86 fold	0.64 fold	0.92 fold	0.73 fold	without affecting Nurr1 activity	9.4 ± 6.3	0.63 ± 0.09	inverse agonism	24 ± 3	0.62 ± 0.02	inverse agonism	CN1C(C(=O)Nc2ccccn2)=C(O)c2sc(Cl)cc2S1(=O)=O [lornoxicam]	–
0.94 fold	0.94 fold	0.98 fold	0.69 fold	1.00 fold	0.78 fold	–	30 ± 1	0.38 ± 0.02	inverse agonism	33 ± 5	0.32 ± 0.10	inverse agonism	COc1ccc(-c2noc(CC(=O)O)c2-c2ccc(OC)cc2)cc1 [mofezolac]	–
1.44 fold	1.46 fold	1.57 fold	1.44 fold	1.69 fold	1.74 fold	–	–	–	–	–	–	–	COc1ccc2cc(CCC(C)=O)ccc2c1 [nabumeton]	–
1.14 fold	1.15 fold	0.99 fold	1.07 fold	1.09 fold	1.09 fold	–	–	–	–	–	–	–	COc1ccc2cc([C@H](C)C(=O)O)ccc2c1 [naproxen]	–
1.02 fold	0.92 fold	0.98 fold	0.97 fold	1.09 fold	1.23 fold	–	–	–	–	–	–	–	NC(=O)Cc1cccc(C(=O)c2ccccc2)c1N [nepafenac]	–
0.94 fold	1.04 fold	0.83 fold	0.81 fold	0.94 fold	1.02 fold	–	–	–	–	–	–	–	CCCCC1C(=O)N(c2ccccc2)N(c2ccccc2)C1=O [phenylbutazone]	–

Structure (SMILES)	Nurr1 activity 10μM (mean fold activation) [1]	Nurr1 activity 30μM (mean fold activation) [1]	Nur77 activity 10μM (mean fold activation) [2]	Nur77 activity 30μM (mean fold activation) [2]	Nor1 activity 10μM (mean fold activation) [3]	Nor1 activity 30μM (mean fold activation) [3]	Nurr1 activity in words or dash ([1]; dash = not reported as active versus VP16 control (p < 0.05))	IC50 [2] [µM]	Nur77 min./max. activation [2]	Nur77 activity in words or dash [2]	IC50 [3, 4] [µM]	NOR1 min./max. activation ([3]; mean ± SD)	NOR1 activity in words or dash [3]	IC50 [3] [µM]
Cc1ccc(-c2cc(C(F)(F)F)nn2-c2ccc(S(N)(=O)=O)cc2)cc1 [celecoxib]	0.93 fold	0.97 fold	0.75 fold	toxic	0.92 fold	toxic	–	–	–	–	–	–	–	–
O=C(O)Cc1ccccc1Nc1c(Cl)cccc1Cl [diclofenac]	1.19 fold	toxic	0.94 fold	toxic	1.11 fold	toxic	–	–	–	–	–	–	–	–
O=C(OCCOCCO)c1ccccc1Nc1cccc(C(F)(F)F)c1 [etofenamate]	0.97 fold	toxic	0.84 fold	toxic	1.07 fold	toxic	–	–	–	–	–	–	–	–
O=C(O)c1ccccc1Nc1cccc(C(F)(F)F)c1 [flufenamic acid]	1.14 fold	toxic	0.99 fold	toxic	1.36 fold	toxic	–	–	–	–	–	–	–	–
Cc1c(Nc2ncccc2C(=O)O)cccc1C(F)(F)F [flunixin]	toxic	toxic	toxic	toxic	toxic	toxic	–	–	–	–	–	–	–	–
COc1ccc2c(c1)c(CC(=O)O)c(C)n2C(=O)c1ccc(Cl)cc1 [indometacin]	0.96 fold	0.91 fold	0.83 fold	toxic	0.87 fold	toxic	–	–	–	–	–	–	–	–
Cc1cccc(Nc2ccccc2C(=O)O)c1C [mefenamic acid]	0.90 fold	0.86 fold	0.80 fold	toxic	0.95 fold	toxic	–	–	–	–	–	–	–	–
Cc1cnc(NC(=O)C2=C(O)c3ccccc3S(=O)(=O)N2C)s1 [meloxicam]	–	–	–	–	–	–	–	–	0.23 ± 0.02	–	–	0.1 ± 0.1	–	84 ± 17
CS(=O)(=O)Nc1ccc([N+](=O)[O-])cc1Oc1ccccc1 [nimesulid]	1.00 fold	0.89 fold	0.90 fold	toxic	0.91 fold	0.84 fold	–	–	–	–	–	–	–	–
